What was measured:
[1] = Biodistribution in control animals (FIG. 3); assay type: in vivo; conditions: FIG. 3, normal CD1 nude mice, 15, 30, 60 min p.i.
Description: (§1) For all in vivo studies the following experimental procedure was used. Mice (7- to 8-week old female CD1−/− nude mice) were injected with 5.1-7.4 MBq of compound 1 (n=9) via the lateral tail vein. At 15, 30, 60 (n=3 for each time point) post-radiotracer injection (p.i.) the blood was collected in EDTA-coated tubes through cardiac puncture and the mice were euthanized by cervical dislocation.
The uptake levels of the tracers were expressed as percentage of the injected dose per gram (% ID g^−1).
FIG. 3 summarizes the tissue biodistribution (% injected dose/gram of tissue) of [^18F]UAMC-4522 (compound 1) and of compound 0 in normal CD1 nude mice after 15, 30, and 60 min p.i. (n=3 per timepoint).

[2] = Metabolic stability comparison (FIG. 2); conditions: FIG. 2, Compound 1 versus Compound 0
[3] = In vivo stability of radiotracer in plasma; design: species or system CD1 nude mice; conditions: for Mean % intact radiotracer ± SD: CD1 nude mice
Description: as §1
From the collected blood, the plasma fraction was obtained by centrifugation at 4,000 g for 7 min, and mixed (200 μL) with an equal volume of cold MeCN to enable sample deproteination. After vigorously vortexing and γ-counting, the samples were centrifuged at 4000 g for 4 min, and the supernatant and the pellet were γ-counted separately to determine the amount of recovered radioactivity in the organic phase. The radioactive contents of the supernatant were analyzed by analytical radio-HPLC. The eluate fractions were collected every 30 s and counted for radioactivity in an automated γ-counter.

[4] = Partition coefficient (Log D) of radiotracer; assay type: physicochemical; conditions: organic solvent / aqueous solution (solvents not named); mean with standard deviation (n=8)
Description: Radiotracer characterization: To assess the quality and suitability of compound 1 ([^18F]UAMC-4522) for specific applications, such as medical imaging, several parameters were determined. First, the decay-corrected RCY (Radiochemical Yield) was calculated. This indicates the percentage of the desired radioactively labeled molecule after correction for radioactive decay. It is calculated by dividing the amount of radioactively labeled molecule by the total radioactivity, taking into account the time elapsed since radiolabeling. Next, the Apparent Molar Activity (Am) was calculated. This represents the activity of the radiotracer per unit of substance (e.g. per micromole). It is calculated by dividing the activity of the radiotracer by the amount of labeled molecule used. Next, the Radiochemical Purity (RCP) was determined. This indicates the percentage of the radioactively labeled molecule relative to other chemical components or impurities. It is often determined using analytical techniques such as radio-HPLC (High-Performance Liquid Chromatography) or radio-TLC (Thin-Layer Chromatography). Finally, the Partition Coefficient (Log D) was calculated. This reflects the distribution of a substance between two solvents with different polarities. The Log D value represents the ratio of the concentrations of the substance in an organic solvent and an aqueous solution. […]

U87MG xenografts [5] = assay: Ex vivo biodistribution in tumor-bearing animals; design: species or system mice; conditions: 60 min p.i.
Description: In accordance with the PET results, the biodistribution study confirmed the high and specific tumor uptake of all FAP radioligands at 60 min post-injection (p.i.) (Table 6).

Human recombinant PREP = target: T1, Human recombinant PREP (Homo sapiens, UniProt P48147); assay: PREP IC50 measurement (N-succinyl-Gly-Pro-AMC); assay type: biochemical; conditions: FIG. 1, Compound 1 versus Compound 0
T1 construct: made in house; host or cells: E. coli BL21(DE3)
T1 sequence (P48147 1-710): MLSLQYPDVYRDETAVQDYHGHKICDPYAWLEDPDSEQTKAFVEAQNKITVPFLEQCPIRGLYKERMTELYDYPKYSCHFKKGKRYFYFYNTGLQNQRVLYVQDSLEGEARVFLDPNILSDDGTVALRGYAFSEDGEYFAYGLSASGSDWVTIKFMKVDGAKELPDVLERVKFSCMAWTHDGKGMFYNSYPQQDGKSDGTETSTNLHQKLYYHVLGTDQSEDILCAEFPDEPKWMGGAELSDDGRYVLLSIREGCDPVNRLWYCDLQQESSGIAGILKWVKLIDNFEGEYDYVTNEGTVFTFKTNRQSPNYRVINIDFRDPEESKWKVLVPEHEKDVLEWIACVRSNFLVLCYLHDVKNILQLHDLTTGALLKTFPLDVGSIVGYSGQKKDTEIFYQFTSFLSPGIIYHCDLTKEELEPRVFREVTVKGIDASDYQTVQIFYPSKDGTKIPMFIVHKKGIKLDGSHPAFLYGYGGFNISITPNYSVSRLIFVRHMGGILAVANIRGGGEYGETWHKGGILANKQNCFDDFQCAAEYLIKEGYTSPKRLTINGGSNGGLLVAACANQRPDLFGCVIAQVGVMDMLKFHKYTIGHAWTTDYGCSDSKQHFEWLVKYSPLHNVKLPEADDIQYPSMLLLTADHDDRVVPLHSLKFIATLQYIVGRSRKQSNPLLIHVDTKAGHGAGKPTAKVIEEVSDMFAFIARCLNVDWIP
From the text: Used Enzymes in these Assays: • A gateway-entry clone for human FAP was purchased from Dharmacon (Accession number DQ891423) and the human secretion signal was replaced with the HoneyBee mellitin secretion signal. For transfection and expression of FAP in Sf9 insect cells the C-terminal BaculoDirect kit from LifeTechnologies was used. The enzyme was purified from the supernatant of the insect cells using immobilized Ni-chelating chromatography (GE healthcare, Diegem, Belgium), followed by anion-exchange chromatography using a 1 mL HiTrap Q and size exclusion chromatography using the Superdex 200 column (GE healthcare, Diegem, Belgium). • Human recombinant PREP was expressed in BL21(DE3) cells and purified using immobilized Co-chelating chromatography (GE healthcare), followed by anion-exchange chromatography on a 1 ml Mono Q column (GE healthcare). • DPP4 was purified from human seminal plasma. • Gateway-entry clones for human DPP8 and DPP9 were purchased from Dharmacon (Accession numbers DQ891733 and DQ892325 respectively). For transfection and expression of DPP8 and DPP9 in Sf9 insect cells the N-terminal BaculoDirect kit from LifeTechnologies was used. The enzymes were purified using immobilized Ni-chelating chromatography (GE healthcare, Diegem, Belgium), followed by anion-exchange chromatography using a 1 mL Mono Q (GE healthcare, Diegem, Belgium). • Recombinant human DPP2 was purchased from R&D.
Eight concentrations of inhibitors/probe were tested. The final DMSO concentration was kept constant during the experiment to exclude any effects. Inhibitors were pre-incubated with the enzyme for 15 minutes at 37° C., afterwards the substrate was added and the velocities of AMC release were measured kinetically at λex=380 nm, λem=465 nm for at least 10 minutes at 37° C. […] Eight concentrations of inhibitors were tested. The final DMSO concentration in kept constant during the experiment to exclude any effects. Inhibitors were pre-incubated with the enzyme for 15 minutes at 37° C., afterwards the substrate was added and the velocities of AMC release were measured kinetically at λex=380 nm, λem=465 nm for at least 10 minutes at 37° C. […] At least eight different inhibitor concentrations were used. The final DMSO concentration is kept constant during the experiment to exclude any effects. Inhibitors were pre-incubated with the enzyme for 15 minutes at 37° C., afterwards the substrate was added and the velocities of pNA release were measured kinetically at 405 nm for at least 10 minutes at 37° C. Measurements were done on the Infinite 200 (Tecan Group Ltd.) and the Magellan software was used to process the data. • For DPP2: Initial velocity measurements were carried out. Lys-Ala-pNA was used as the substrate at a concentration of 1 mM at pH 5.5 (100 mM NaAc, 10 mM EDTA, 14 μg/mL aprotinin). Inhibitors were tested at one concentration, 5 μM, being the final concentration in the well. Inhibitors were pre-incubated with the enzyme for 15 minutes at 37° C., afterwards the substrate was added and the velocities of pNA release were measured kinetically at 405 nm for at least 10 minutes at 37° C. Measurements were done on the Infinite 200 (Tecan Group Ltd.) and the Magellan software was used to process the data.

U87MG xenografts [6] = conditions: mouse
Description: Dynamic whole-body PET images were acquired during 60 min. The average tumor or muscle activity per volume was obtained from the PET images and the decay-corrected time-activity curves (TACs) were extracted. At the end of the scans, the organs and tissues were harvested, weighed and the radioactivity in the samples was measured using an automatic γ-counter.

[7] = female, CD1-/- nude, in vivo, 60 min

For `[2H]C([2H])([18F])[N+](C)(C)CCCOc1ccc2nccc(C(=O)NCC(=O)N3CC(F)(F)C[C@H]3C#N)c2c1` [Compound 1], the “biodistribution / excretion profile (in words)” value [1] was “biodistribution profile including urinary excretion”, the “metabolic stability (in words)” value [2] was “significantly higher metabolic stability” and the “Mean % intact radiotracer ± SD” value ([3]; 15 min p.i.) was 74.84 ± 6.62%. For the same compound, the “Mean % intact radiotracer ± SD” value ([3]; 30 min p.i.) was 60.23 ± 3.60%, the “Mean % intact radiotracer ± SD” value ([3]; 60 min p.i.) was 56.47 ± 7.81% and the “Mean % intact radiotracer ± SD” value ([3]; time 0 min) was 99.12 ± 0.51%. For the same compound, the “in vivo stability (in words)” value ([3]; compared with the control [68Ga]Ga-DOTA-FAPI-04) was “significantly higher”, the logD [4] was -1.77 ± 0.01 and the “Tumor (% ID/g)” value (U87MG xenografts [5]) was 10.98 ± 1.73 % ID/g. It also gave a Tumor-to-blood (U87MG xenografts [5]) of 6.35 ± 1.08, a Tumor-to-liver (U87MG xenografts [5]) of 4.77 ± 0.58 and a Tumor-to-muscle (U87MG xenografts [5]) of 6.54 ± 1.36. The Tumor-to-small intestine (U87MG xenografts [5]) was 2.43 ± 0.12, the “selectivity for FAP with respect to PREP (in words)” value (Human recombinant PREP) was “significantly higher selectivity for FAP” and the “tumor uptake (PET)” value (U87MG xenografts [6]; [7]) was 10.16±2.22 % ID/mL. The “uptake in the muscle (PET)” value (U87MG xenografts [6]; [7]) was 2.20±0.33 % ID/mL, the “uptake into tumor tissue in vivo (in words)” value (U87MG xenografts [6]) was “significantly higher uptake” and the “nonspecific tumor uptake (in words)” value (U87MG xenografts [6]; in vivo) was “lower nonspecific tumor uptake”. For the same compound, the “tumor time-activity curve (in words)” value (U87MG xenografts [6]; in vivo) was “early peak uptake in the tumor followed by retention or slight increase in the tumor” and the “tumor uptake after pre-injection of UAMC-1110 (blocking study, in words)” value (U87MG xenografts [6]; in vivo) was “decrease in tumor uptake”.

— patent publication US20250339566A1, “INHIBITORS OF FIBROBLAST ACTIVATION PROTEIN” (UNIVERSITEIT ANTWERPEN, priority 2022, published 2025)
